As a reminder, the mass density is mass per unit of volume. For orientation: refractive index means the speed of light in vacuum divided by its phase velocity in the sample.

We go through five molecules from the NIST ThermoML archive (doi:10.1021/je201102x).

For data set [1] the following is noted: 101.33 kPa, Liquid, Vibrating tube method.
Data set [2] is described as follows: refractive index (Na D-line) (dimensionless). The following applies: 293.15 K; 101.33 kPa; Liquid; Standard Abbe refractometry.

Numbers after ± are expanded uncertainties.

`CC(C)CO` [2-methyl-1-propanol]: the mass density in data set [1] (293.15 K) came out at 801.99 ± 0.24 kg/m3; in data set [1] (298.15 K), 798.13 ± 0.24 kg/m3; in data set [1] (303.15 K) it was 794.24 ± 0.24 kg/m3; in data set [1] (313.15 K) it was 786.28 ± 0.24 kg/m3; in data set [1] (323.15 K), 778.09 ± 0.24 kg/m3; in data set [1] (333.15 K), 769.6 ± 0.24 kg/m3. Besides, the refractive index in data set [2] is 1.3929 ± 0.0008.

Regarding `CC(=O)O` [acetic acid], the mass density amounted to 1049.31 ± 0.08 kg/m3 in data set [1] (293.15 K); 1043.65 ± 0.08 kg/m3 in data set [1] (298.15 K); 1037.99 ± 0.07 kg/m3 in data set [1] (303.15 K); 1026.68 ± 0.07 kg/m3 in data set [1] (313.15 K); 1015.36 ± 0.07 kg/m3 in data set [1] (323.15 K); 1004.01 ± 0.07 kg/m3 in data set [1] (333.15 K). For the same molecule, the refractive index in data set [2] worked out at 1.3687 ± 0.0008.

Regarding `CCC(C)O` (stereo not given) [butan-2-ol], the mass density in data set [1] (293.15 K) came to 806.75 ± 0.24 kg/m3; in data set [1] (298.15 K) it was 802.62 ± 0.24 kg/m3; in data set [1] (303.15 K) it was 798.43 ± 0.24 kg/m3; in data set [1] (313.15 K), 789.75 ± 0.24 kg/m3; in data set [1] (323.15 K), 780.65 ± 0.24 kg/m3; in data set [1] (333.15 K), 771.1 ± 0.24 kg/m3. The refractive index in data set [2] is recorded as 1.3943 ± 0.0008.

For the molecule `CCC(C)(C)O` [2-methylbutan-2-ol], the mass density in data set [1] (293.15 K) worked out at 808.98 ± 0.14 kg/m3; in data set [1] (298.15 K), 804.39 ± 0.15 kg/m3; in data set [1] (303.15 K), 799.75 ± 0.15 kg/m3; in data set [1] (313.15 K) it was 790.27 ± 0.15 kg/m3; in data set [1] (323.15 K), 780.46 ± 0.16 kg/m3; in data set [1] (333.15 K), 770.27 ± 0.16 kg/m3. In data set [2], the refractive index came out at 1.4016 ± 0.0008.

As for `CCC(=O)O` [propanoic acid], the mass density was found to be 993.56 ± 0.09 kg/m3 in data set [1] (293.15 K); 988.15 ± 0.1 kg/m3 in data set [1] (298.15 K); 982.75 ± 0.1 kg/m3 in data set [1] (303.15 K); 971.96 ± 0.1 kg/m3 in data set [1] (313.15 K); 961.16 ± 0.11 kg/m3 in data set [1] (323.15 K); 950.35 ± 0.11 kg/m3 in data set [1] (333.15 K). For the same molecule, the refractive index in data set [2] is reported as 1.3835 ± 0.0008.
